This is an account of results in ChEMBL document CHEMBL3352799, “Arylazolyl(azinyl)thioacetanilides. Part 16: Structure-based bioisosterism design, synthesis and biological evaluation of novel pyrimidinylthioacetanilides as potent HIV-1 inhibitors” (Bioorg Med Chem, 2014).

The test system of series [1] is Human immunodeficiency virus 1. Briefly: Antiviral activity against HIV1 3B infected in human MT4 cells assessed as reduction in virus-induced cytopathogenicity by MTT assay. In kind it is functional, organism-based. Conditions: Human immunodeficiency virus 1, 3B. For orientation: Cytopathic effects are the visible damage that an infection or toxin causes in cultured cells.

Series [2] can be described thus: Selectivity index, ratio of CC50 for human MT4 cells to EC50 for HIV1 3B infected in human MT4 cells. In kind it is toxicity, cell-based. Conditions: read-out: Ratio CC50/EC50.
Series [3] deals with Human immunodeficiency virus 1. The series can be described thus: Antiviral activity against HIV1 RES056 expressing reverse transcriptase K103N/Y181C double mutant infected in human MT4 cells assessed as reduction in virus-induced cytopathogenicity by MTT assay. In kind it is functional, organism-based. Conditions: Human immunodeficiency virus 1, RES056, MT4.
The nature of series [4]: Selectivity index, ratio of CC50 for human MT4 cells to EC50 for HIV1 RES056 expressing reverse transcriptase K103N/Y181C double mutant infected in human MT4 cells. Conditions: read-out: Ratio CC50/EC50. The format is toxicity, cell-based.
Series [5] in a line: Cytotoxicity against human MT4 cells by MTT assay. In kind it is cell-based. On the technique in general: Tetrazolium assays rely on reduction of a dye to a coloured formazan, in cell work by metabolically active cells.
Series [6] has as its system Human immunodeficiency virus 2. The series can be described thus: Antiviral activity against HIV2 ROD infected in human MT4 cells assessed as reduction in virus-induced cytopathogenicity by MTT assay. In kind it is functional, organism-based. Conditions: ISOLATE ROD.
Series [7] deals with Human immunodeficiency virus type 1 reverse transcriptase (Human immunodeficiency virus 1, UniProt Q72547). Briefly: Inhibition of HIV1 reverse transcriptase assessed as inhibition of biotin-dUTP incorporation using hybrid poly (A).oligo (dT)15 template primer incubated for 1 hr at 37 degC by ELISA method. On the technique in general: An ELISA detects its analyte on a solid surface through an enzyme-linked reagent.

Active and inactive are the calls of the source. No cut-off for these calls is given here. Bounds are passed on as bounds.

As usually defined, the EC50 is the concentration at which the effect is half-maximal. By CC50 is commonly meant the concentration at which the toxic effect on the cells reaches its halfway point. Read a high CC50 as better tolerance by the cells. On to `CONC(=O)c1ccc(NC(=O)CSc2ncncc2-c2cccc3ccccc23)c(Cl)c1`, for which the EC50 in series [1] was 0.75 µM; in series [3], more than 131 µM. Moreover, the selectivity ratio was 175 in series [2] and less than 1 in series [4]. Further, it took 131 µM to reach half-maximal cytotoxicity in series [5] (CC50). Further, in series [6], the inhibition entry is “inactive”.
In the case of `Brc1ccccc1Cn1cc(CSc2ncncc2-c2cccc3ccccc23)nn1`, the EC50 in series [1] and in series [3] was more than 39.4 µM each time. For the same compound, the selectivity ratio in series [2] and in series [4] was less than 1 each time. The compound further returned a CC50 in series [5] of 39.4 µM. Also, the inhibition entry in series [6] was “inactive”.
With `O=C1Nc2ccc(Cl)cc2[C@@](C#CC2CC2)(C(F)(F)F)O1` [EFAVIRENZ], the EC50 in series [1] came to 0.0053 µM; in series [3] it was 0.23 µM. Moreover, the results for the selectivity ratio in series [2] and in series [4] were more than 1180 and more than 27, respectively. In series [5], this compound returned a CC50 of more than 6.3 µM.
Take `NS(=O)(=O)c1ccc(NC(=O)CSc2nncnc2-c2cccc3ccccc23)c(Br)c1`: the selectivity ratio in series [2] came out at 1290.
Broadly, the IC50 is the concentration at which inhibition is half-maximal. Regarding `CCOC(=O)CNC(=O)c1ccc(NC(=O)CSc2ncncc2-c2cccc3ccccc23)c(Cl)c1`, the EC50 was 0.15 µM in series [1] and 30.6 µM in series [3]. Besides, the selectivity ratio came out at 684 in series [2] and 3 in series [4]. The half-inhibitory concentration (IC50) in series [7] was 1.31 µM. Also, the CC50 in series [5] came to 105 µM. The inhibition entry in series [6] is “inactive”.
Consider `CCOC(=O)c1ccc(NC(=O)CSc2ncncc2-c2cccc3ccccc23)c(Cl)c1`, for which the results for the EC50 in series [1] and in series [3] were 4.55 µM and more than 195 µM, respectively. The figures for the selectivity ratio in series [2] and in series [4] were 43 and less than 1, respectively. In series [5], this compound displayed a CC50 of 195 µM. In series [6], the inhibition entry is “inactive”.
For the compound `Cc1ccnc2c1NC(=O)c1cccnc1N2C1CC1` [NEVIRAPINE], the EC50 in series [3] is more than 14.4 µM. The compound also came in with a CC50 in series [5] of more than 14.4 µM.
Regarding `O=C(CSc1ncncc1-c1cccc2ccccc12)Nc1ccccc1[N+](=O)[O-]`, the 50% effective concentration (EC50) in series [1] is 0.91 µM; in series [3], more than 22.5 µM. Further, the results for the selectivity ratio in series [2] and in series [4] were 25 and less than 1, respectively. Moreover, half-maximal cytotoxicity in series [5] (CC50) was put at 22.5 µM. Further, in series [6], the inhibition result is “inactive”.
As to `O=C(O)c1ccc(-n2cc(CSc3ncncc3-c3cccc4ccccc34)nn2)cc1`, the EC50 in series [1] and in series [3] was more than 95.9 µM in each case. Moreover, the selectivity ratio in series [2] and in series [4] was less than 1 in each case. In addition, the CC50 in series [5] stood at 95.9 µM. Besides, the inhibition entry in series [6] was “inactive”.
Turning to `CCOC(=O)C(C)NC(=O)c1ccc(NC(=O)CSc2ncncc2-c2cccc3ccccc23)c(Cl)c1` (configuration not stated), the figures for the concentration giving a half-maximal response (EC50) in series [1] and in series [3] were 2.76 µM and more than 35.6 µM, respectively. Besides, the selectivity ratio in series [2] was 13; in series [4], less than 1. The CC50 in series [5] worked out at 35.6 µM. Moreover, the inhibition entry in series [6] was “inactive”.
Regarding `COC(=O)c1ccc(NC(=O)CSc2ncncc2-c2cccc3ccccc23)c(Br)c1`, the EC50 in series [1] was 2.42 µM; in series [3], more than 168 µM. Besides, the selectivity ratio in series [2] was 69; in series [4], less than 1. The compound also yielded a CC50 in series [5] of 168 µM. In addition, the inhibition entry in series [6] was “inactive”.
For the compound `O=C(CSc1ncncc1-c1cccc2ccccc12)Nc1ccc(C(=O)O)cc1Cl`, the EC50 was 8.13 µM in series [1] and more than 108 µM in series [3]. Besides, the values for the selectivity ratio in series [2] and in series [4] were 13 and less than 1, respectively. For the same compound, in series [5], the 50% cytotoxic concentration (CC50) stood at 108 µM. The inhibition entry in series [6] was “inactive”.
Turning to `NS(=O)(=O)c1ccc(NC(=O)CSc2ncncc2-c2cccc3ccccc23)c(Br)c1`, the EC50 was 0.18 µM in series [1] and 3.9 µM in series [3]. For the same compound, the figures for the selectivity ratio in series [2] and in series [4] were 132 and 6, respectively. The same compound displayed a CC50 in series [5] of 24.1 µM. In series [6], the inhibition entry is “inactive”.
For the compound `O=C(CSc1ncncc1-c1cccc2ccccc12)Nc1ccc(C(=O)NO)cc1Cl`, the values for the EC50 in series [1] and in series [3] were 0.63 µM and more than 4.8 µM, respectively. The results for the selectivity ratio in series [2] and in series [4] were 8 and less than 1, respectively. The same compound displayed a CC50 in series [5] of 4.8 µM. Further, the inhibition entry in series [6] is “inactive”.
Turning to `O=C(CSc1ncncc1-c1cccc2ccccc12)Nc1ccc(C(=O)O)nc1Cl`, the EC50 in series [1] is 24.2 µM; in series [3], more than 127 µM. The selectivity ratio in series [2] was 5; in series [4], less than 1. In series [5], this compound came in with a CC50 of 127 µM. Further, the inhibition entry in series [6] was “inactive”.
Take `O=C(CSc1nccnc1-c1ccccc1Cl)Nc1ccccc1[N+](=O)[O-]`: in series [2], the selectivity ratio is 23.
Consider `COC(=O)c1ccc(NC(=O)CSc2ncncc2-c2cccc3ccccc23)c(Cl)c1`, for which the figures for the EC50 in series [1] and in series [3] were 2.84 µM and more than 154 µM, respectively. Further, the selectivity ratio in series [2] is 54; in series [4], less than 1. The compound further displayed a CC50 in series [5] of 154 µM. In addition, the inhibition entry in series [6] was “inactive”.
Turning to `O=C(CSc1nnccc1-c1cccc2ccccc12)Nc1ccccc1[N+](=O)[O-]`, the selectivity ratio in series [2] was found to be 2150.
Consider `CCOC(=O)c1ccc(NC(=O)CSc2ncncc2-c2cccc3ccccc23)c(Br)c1`, for which the values for the EC50 in series [1] and in series [3] were 4.46 µM and more than 211 µM, respectively. Also, the selectivity ratio in series [2] was 47; in series [4] it was less than 1. Also, the 50% cytotoxic concentration (CC50) in series [5] is 211 µM. For the same compound, the inhibition entry in series [6] was “inactive”.
Consider `COc1ccc(Cn2cc(CSc3ncncc3-c3cccc4ccccc34)nn2)cc1`, for which the EC50 is more than 31.1 µM in series [1] and more than 31.2 µM in series [3]. Moreover, the selectivity ratio in series [2] and in series [4] was less than 1 throughout. In series [5], half-maximal cytotoxicity (CC50) was put at 31.2 µM. Also, in series [6], the inhibition entry is “inactive”.
As for `CC(C)Nc1cccnc1N1CCN(C(=O)c2cc3cc(NS(C)(=O)=O)ccc3[nH]2)CC1` [DELAVIRDINE], the EC50 was 0.49 µM in series [1] and more than 43.8 µM in series [3]. For the same compound, the selectivity ratio was more than 89 in series [2] and 1 in series [4]. The CC50 in series [5] is more than 43.8 µM.
Take `COC(=O)c1ccc(NC(=O)CSc2ncncc2-c2cccc3ccccc23)c([N+](=O)[O-])c1`: the EC50 in series [1] was 3.58 µM; in series [3] it was more than 196 µM. Moreover, the results for the selectivity ratio in series [2] and in series [4] were not below 55 and 1, respectively. The compound further showed a CC50 in series [5] not below 196 µM. Also, in series [6], the inhibition entry is “inactive”.
